Patent US8324264B1, “Inhibitors of bacterial biofilms and related methods” (Sequoia Sciences, Inc., priority 2011, dated 2012)
Values after ≈ are worked out from the molar mass of the structure shown. Like-named read-outs stand apart in the source and are kept apart here.

Tests used:
E. coli biofilms = test: Biofilm growth assay (spreading biofilm on semi-solid agar), E. coli; format: cell-based; conditions: biofilm growth assay, overnight 37° C., vs negative controls, Tables 1-5; for IC85: Escherichia coli, read-out: E. coli: concentration that reduces the area of the spreading biofilm by greater than or equal to 85%
Source text: (§1) “Biofilm Growth Assay” refers to an assay performed on semi-solid agar surface where the bacteria collectively move out from an inoculation point. To those skilled in the art, the act of bacteria collectively moving out from an inoculation point on a semi-solid surface may be referred to as swarming or a spreading biofilm. (Anderson, et al Microbiology, 2003, 149, 37-46; Daniels, et al. FEMS Microbiology Reviews, 2004, 28, 261-289). The procedure to perform this assay is described in detail in the Examples. This type of surface motility by bacteria has been reported in the literature by those skilled in the art. […] These references are incorporated herein by reference in their entirety.
(§2) The biofilm growth assay was carried out to measure swarming or biofilm spreading on semi-solid agar media in round plates (for example, 100×15 mm), also referred to as Petri dishes. For E. coli, the plates contained LB medium with 0.6% agar and 0.5% glucose. P. aeruginosa plates were made with M8 agar supplemented with 0.2% glucose, 100 μM CaCl2, 1 mM MgSO4, and 0.5% Casamino acids. The agar plates of this assay consisted of 0.4% to 0.7% agar (Bacto or Noble agar), although other media may also be used as described in the literature and known to those skilled in the art. Test compounds at the desired concentration were added to the cooled, autoclaved media. Portions of the media were then poured into the plates (20 mL/plate), and the plates allowed to dry at room temperature for approximately 3 to 4 hours. Alternatively, however, plates may be dried in a laminar flow hood for approximately fifteen to twenty minutes. Overnight cultures were grown in a 37° C. shaker in LB (E. coli) or TSB (P. aeruginosa). Plates were inoculated by placing 5 μL of the appropriate overnight culture in the centers of the plates. The plates then were incubated overnight at 37° C. The area of the zone of spreading bacteria was then measured and replicates are averaged. Percent inhibition was calculated as 100×(area without compound−area with compound)/(area without compound). An active compound was considered that which reduces the area of the spreading biofilm compared to negative controls by greater than or equal to 85%. The values shown in Table 1 are the concentrations of compounds (μg/ml) tested in the biofilm growth assay that reduce the area of the spreading biofilm compared to negative controls by greater than or equal to 85% unless noted differently in Table 1. A > (“greater than” symbol) as used in Table 1 is well understood to those skilled in the art as an indication that the listed concentration was not effective at this concentration.
(§3) All of the compounds shown in Tables 2, 3, 4, and 5, below, were prepared semi-synthetically from oleanolic acid, except for Compounds 2 and 3. Compound 2 was prepared from ursolic acid. Compound 3 was prepared from hederagenin, but could also be prepared from an oleanolic acid analog with a hydroxyl at C23 or C24. These compounds were tested in the spreading biofilm assay according to the methods detailed in Example I, above. The values shown in Tables 2, 3, 4, and 5 are the concentrations of compounds tested in the biofilm growth assay that reduce the area of the spreading biofilm compared to negative controls by greater than or equal to 85%.

P. aeruginosa biofilms = test: Biofilm growth assay (spreading biofilm on semi-solid agar), P. aeruginosa; format: cell-based; conditions: for IC85: Pseudomonas aeruginosa, read-out: P. aeruginosa: concentration that reduces the area of the spreading biofilm by greater than or equal to 85%
Source text: as §1, §2, §3

[1] = biofilm growth assay, overnight 37° C., vs negative controls, Tables 1-5

Compound	E. coli: concentration that reduces the area of the spreading biofilm by greater than or equal to 85% (E. coli biofilms)	P. aeruginosa: concentration that reduces the area of the spreading biofilm by greater than or equal to 85% (P. aeruginosa biofilms; [1])	IC85 (E. coli biofilms)	IC85 (P. aeruginosa biofilms; [1])	IC85 (P. aeruginosa biofilms)
CN1CCN(Cc2occc2C2=C3[C@@H]4CC(C)(C)CC[C@]4(C(=O)O)CC[C@@]3(C)[C@]3(C)CC[C@H]4C(C)(C)c5n[nH]c(N)c5C[C@]4(C)C3C2)CC1 (stereo partly drawn) [Example 36, (4aS,6aS,6bR,8aR,13aR,15bS)-12-Amino-2,2,6a,6b,9,9,13a-heptamethyl-15-(2-((4-methylpiperazin-1-yl)methyl)furan-3-yl)-2,3,4,4a,5,6,6a,6b,7,8,8a,9,11,13,13a,13b,14,15b-octadecahydro-1H-chryseno[1,2-f]indazole-4-a-carboxylic acid]	2 µg/mL	>1 µg/mL	–	–	–
C[C@H]1[C@H](C)CC[C@]2(C(=O)O)CC[C@]3(C)C(=CCC4[C@@]5(C)Cc6c(n[nH]c6N)C(C)(C)[C@@H]5CC[C@]43C)[C@H]12 (stereo partly drawn) [Example 2, (4aS,6aS,6bR,13aR)-12-Amino-2,2,6a,6b,9,9,13a-heptamethyl-2,3,4,4a,5,6,6a,6b,7,8,8a,9,11,13,13a,13b,14,15b-octadecahydro-1H-chryseno[1,2-f]indazole-4-a-carboxylic acid]	–	–	1 µg/mL (≈ 2.03 µM)	0.5 µg/mL (≈ 1.01 µM)	–
CC1(C)CC[C@]2(c3cc(O)[nH]n3)CC[C@]3(C)C(=CCC4[C@@]5(C)Cc6c(n[nH]c6N)C(C)(C)[C@@H]5CC[C@]43C)[C@@H]2C1 (stereo partly drawn) [Compound 68, 3-((4aS,6aS,6bR,13aR)-12-Amino-2,2,6a,6b,9,9,13a-heptamethyl-2,3,4,4a,5,6,6a,6b,7,8,8a,9,11,13,13a,13b,14,15b-octadecahydro-1H-chryseno[1,2-f]indazol-4-a-yl)-1H-pyrazol-5-ol]	–	–	0.5 µg/mL (≈ 0.94 µM)	0.5 µg/mL (≈ 0.94 µM)	–
Lupeol [reference compound]	>8 µg/mL	>16 µg/mL	–	–	–
CC1=C2[C@@H]3CC(C)(C)CC[C@]3(C(=O)O)CC[C@@]2(C)[C@]2(C)CC[C@H]3C(C)(C)c4n[nH]c(N)c4C[C@]3(C)C2C1 (stereo partly drawn) [Example 4, (4aS,6aS,6bR,8aR,13aR,15bS)-12-Amino-2,2,6a,6b,9,9,13a,15-octamethyl-2,3,4,4a,5,6,6a,6b,7,8,8a,9,11,13,13a,13b,14,15b-octadecahydro-1H-chryseno[1,2-f]indazole-4-a-carboxylic acid]	–	–	1 µg/mL (≈ 1.97 µM)	0.25 µg/mL (≈ 0.492 µM)	–
CC1(C)CC[C@]2(C(=O)O)CC[C@]3(C)C(C(=O)C=C4[C@@]5(C)Cc6c(n[nH]c6N)C(C)(C)[C@@H]5CC[C@]43C)[C@@H]2C1 (stereo partly drawn) [M]	–	–	8 µg/mL (≈ 15.8 µM)	8 µg/mL (≈ 15.8 µM)	–
CC1(C)CC[C@]2(C(=O)O)CC[C@]3(C)C(=C(c4ccco4)CC4[C@@]5(C)Cc6c(n[nH]c6N)C(C)(C)[C@@H]5CC[C@]43C)[C@@H]2C1 (stereo partly drawn) [Example 7, (4aS,6aS,6bR,13aR)-12-Amino-15-(furan-2-yl)-2,2,6a,6b,9,9,13a-heptamethyl-2,3,4,4a,5,6,6a,6b,7,8,8a,9,11,13,13a,13b,14,15b-octadecahydro-1H-chryseno[1,2-f]indazole-4-a-carboxylic acid]	–	–	1 µg/mL (≈ 1.79 µM)	0.25 µg/mL (≈ 0.447 µM)	–
C[C@@H]1c2n[nH]c(N)c2C[C@]2(C)C3CC=C4[C@@H]5CC(C)(C)CC[C@]5(C(=O)O)CC[C@@]4(C)[C@]3(C)CC[C@@H]12 (stereo partly drawn) [Example 3, (4aS,6aS,6bR,8aS,9S,13aS,15bS)-12-Amino-2,2,6a,6b,9,13a-hexamethyl-2,3,4,4a,5,6,6a,6b,7,8,8a,9,11,13,13a,13b,14,15b-octadecahydro-1H-chryseno[1,2-f]indazole-4-a-carboxylic acid]	–	–	1 µg/mL (≈ 2.08 µM)	0.5 µg/mL (≈ 1.04 µM)	–
CC1(C)CC[C@]2(C(=O)O)CC[C@]3(C)C(=C(c4ccsc4CN4CCOCC4)CC4[C@@]5(C)Cc6c(n[nH]c6N)C(C)(C)C5CC[C@]43C)C2C1 (stereo partly drawn) [Example 34, (4aS,6aS,6bR,13aR)-12-Amino-2,2,6a,6b,9,9,13a-heptamethyl-15-(2-(morpholinomethyl)thiophen-3-yl)-2,3,4,4a,5,6,6a,6b,7,8,8a,9,11,13,13a,13b,14,15b-octadecahydro-1H-chryseno[1,2-f]indazole-4-a-carboxylic acid]	1 µg/mL	1 µg/mL	–	–	–
CNc1ccc(C2=C3[C@@H]4CC(C)(C)CC[C@]4(C(=O)O)CC[C@@]3(C)[C@]3(C)CC[C@H]4C(C)(C)c5n[nH]c(N)c5C[C@]4(C)C3C2)cn1 (stereo partly drawn) [Example 43, (4aS,6aS,6bR,8aR,13aR,15bS)-12-Amino-2,2,6a,6b,9,9,13a-heptamethyl-15-(6-(methylamino)pyridin-3-yl)-2,3,4,4a,5,6,6a,6b,7,8,8a,9,11,13,13a,13b,14,15b-octadecahydro-1H-chryseno[1,2-f]indazole-4-a-carboxylic acid]	1 µg/mL	1 µg/mL	–	–	–
CC1(C)CC[C@]2(C(=O)O)CC[C@]3(C)C(=C(CO)CC4[C@@]5(C)Cc6c(n[nH]c6N)C(C)(C)[C@@H]5CC[C@]43C)[C@@H]2C1 (stereo partly drawn) [N]	–	–	8 µg/mL (≈ 15.3 µM)	8 µg/mL (≈ 15.3 µM)	–
CN(C)c1ccc(C2=C3[C@@H]4CC(C)(C)CC[C@]4(C(=O)O)CC[C@@]3(C)[C@]3(C)CC[C@H]4C(C)(C)c5n[nH]c(N)c5C[C@]4(C)C3C2)cc1 (stereo partly drawn) [Example 10, (4aS,6aS,6bR,13aR)-12-Amino-15-(4-(dimethylamino)phenyl)-2,2,6a,6b,9,9,13a-heptamethyl-2,3,4,4a,5,6,6a,6b,7,8,8a,9,11,13,13a,13b,14,15b-octadecahydro-1H-chryseno[1,2-f]indazole-4-a-carboxylic acid]	–	–	1 µg/mL (≈ 1.63 µM)	0.5 µg/mL (≈ 0.816 µM)	–
CC1(C)CC[C@]2(C(=O)O)CC[C@]3(C)C(=C(c4cccc(O)c4)CC4[C@@]5(C)Cc6c(n[nH]c6N)C(C)(C)C5CC[C@]43C)C2C1 (stereo partly drawn) [Example 16, (4aS,6aS,6bR,13aR)-12-Amino-15-(3-hydroxyphenyl)-2,2,6a,6b,9,9,13a-heptamethyl-2,3,4,4a,5,6,6a,6b,7,8,8a,9,11,13,13a,13b,14,15b-octadecahydro-1H-chryseno[1,2-f]indazole-4-a-carboxylic acid]	–	–	2 µg/mL (≈ 3.41 µM)	1 µg/mL (≈ 1.71 µM)	–
CC1(C)CC[C@]2(C(=O)O)CC[C@]3(C)C(=CCC4[C@@]5(C)Cc6c(n[nH]c6CO)C(C)(C)C5CC[C@]43C)C2C1 (stereo partly drawn) [G]	–	–	> 8 µg/mL	> 8 µg/mL	–
CC1(C)CC[C@]2(C(=O)O)CC[C@]3(C)C(=CCC4[C@@]5(C)Cc6c(n[nH]c6Br)C(C)(C)C5CC[C@]43C)C2C1 (stereo partly drawn) [H]	–	–	> 8 µg/mL	8 µg/mL (≈ 14.3 µM)	–
C[C@H]1[C@H](C)CC[C@]2(C(=O)O)CC[C@]3(C)C(=CC[C@@H]4[C@@]5(C)C[C@@H](O)[C@H](O)C(C)(C)[C@@H]5CC[C@]43C)[C@H]12 [Corosolic acid, reference compound]	–	–	–	4 µg/mL (≈ 8.46 µM)	–
CC1(C)CC[C@]2(C(=O)O)CC[C@]3(C)C(=CC[C@@H]4[C@@]5(C)C[C@@H](O)[C@H](O)C(C)(C)[C@@H]5CC[C@]43C)[C@@H]2C1 [Maslinic acid, reference compound]	–	–	–	–	4 µg/mL (≈ 8.46 µM)
C[C@@H]1CC[C@]2(C)CC[C@]3(C)C(=CCC4[C@@]5(C)CC[C@H](O)C(C)(C)C5CC[C@]43C)C2[C@H]1C (stereo partly drawn) [alpha-Amyrin, reference compound]	–	–	–	> 32 µg/mL	–
